Measurements taken from patent US20250114460A1, “NOVEL PLK1 DEGRADATION INDUCING COMPOUND” (UPPTHERA, INC., priority 2021, published 2025).

Molecular target: T1, PLK1 (Homo sapiens, UniProt P53350)
T1 construct: endogenous in cells; host or cells: HeLa LgBit (Plk1-HiBit KI): HeLa stably expressing LgBit, with a CRISPR/Cas9 knock-in of HiBit at the endogenous PLK1 locus
Test: Luciferase assay for PLK1 in HeLa LgBit (Plk1-HiBit KI) cell line
Format: cell-based
Settings: 300 nM compound, luminescence after 9 hours
Procedure: 2. Luciferase Assay for PLK1
(1) Preparation and Culture of HeLa LgBit (Plk1-HiBit KI) Cell Line
A HeLa cell line in which the LgBit vector was transfected and expressed stably was prepared. Then, after constructing gRNA and donor to express the HiBit amino acid sequence behind the C-terminal of the Plk1 gene, which was inherent in the cell, it was inserted into the cell together with a vector capable of expressing CRISPR/Cas9. Only the cells in which the insertion was completed and knock-in had progressed were selected, sub-cultured and used.
(2) Treatment of Compounds of the Present Invention and Method of Luciferase Assay
In the case of HeLa LgBit (Plk1-HiBit KI), the compounds were treated after being released after thymidine block, and the process was as follows. Thymidine (Sigma-Aldrich Cat. No. T9250-5G) was completely dissolved in DW and used in the experiment. For thymidine block, the products were treated with 2 mM of thymidine and then incubated for 24 hours. For release and chemical treatment, the medium was suctioned and washed with 1×PBS. TrypLE™ was added and incubated in 37° C. CO2 incubator for 5 min. Cells neutralized by adding complete media were counted through a counter. For each well of a 96-well culture plate (SPL), 3.3×10^4 cells and a total medium volume of 150 μL were seeded and incubated in a CO2 incubator.
Each cell line was incubated in a CO2 incubator for 18 hours, and Endurazine was added to each well to make up 4% of the total volume. After adding the compound of the present invention in a 96-well white plate (SPL) to a concentration of 300 nM, the wavelength of the plate reader (BMG Labtech, CLARIOstar Plus) was set to […], and then the luminescence was tracked in real time.
In Table 2, Activity represents the ratio of the luminescense value of each Exemplary Compound treatment group to DMSO treatment group (+++: <0.3, ++<0.6, +<0.7).

T1 sequence (P53350 whole entry): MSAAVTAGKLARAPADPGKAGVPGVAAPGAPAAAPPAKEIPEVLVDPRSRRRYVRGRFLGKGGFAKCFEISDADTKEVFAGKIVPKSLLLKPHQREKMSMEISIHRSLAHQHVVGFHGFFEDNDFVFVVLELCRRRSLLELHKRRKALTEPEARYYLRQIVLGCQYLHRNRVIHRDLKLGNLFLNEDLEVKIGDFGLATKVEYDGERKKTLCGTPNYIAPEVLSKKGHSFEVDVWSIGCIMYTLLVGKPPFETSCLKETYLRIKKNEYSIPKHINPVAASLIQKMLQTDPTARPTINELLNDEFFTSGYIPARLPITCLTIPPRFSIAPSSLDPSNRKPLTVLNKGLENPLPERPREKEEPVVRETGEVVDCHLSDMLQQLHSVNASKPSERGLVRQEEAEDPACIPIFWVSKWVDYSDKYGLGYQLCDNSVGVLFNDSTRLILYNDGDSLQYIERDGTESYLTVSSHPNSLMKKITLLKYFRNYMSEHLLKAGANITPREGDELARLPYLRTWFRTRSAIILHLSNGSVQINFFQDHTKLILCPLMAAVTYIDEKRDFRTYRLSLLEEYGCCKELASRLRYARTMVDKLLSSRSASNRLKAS

SMILES | Activity: ratio of the luminescense value of each Exemplary Compound treatment group to DMSO treatment group
COc1cc(C(=O)NC2CCC(N3CCN(CCOCCNc4ccc5c(c4)C(=O)N(C4CCC(=O)NC4=O)C5=O)CC3)CC2)c(F)cc1Nc1ncc2c(n1)N(C1CCCC1)CC(F)(F)C(=O)N2C (centres unmarked) [Compound 193, 4-((9-cyclopentyl-7,7-difluoro-5-methyl-6-oxo-6,7,8,9-tetrahydro-5H-pyrimido[4,5-b][1,4]diazepin-2-yl)amino)-N-((1r,4r)-4-(4-(2-(2-((2-(2,6-dioxopiperidin-3-yl)-1,3-dioxoisoindolin-5-yl)amino)ethoxy)ethyl)piperazin-1-yl)cyclohexyl)-2-fluoro-5-methoxybenzamide] | ++ (++<0.6)
CN1C(=O)C(F)(F)CN(C2CCCC2)c2nc(Nc3ccc(C(=O)NC4CCN(C(=O)CCCNc5cccc6c5C(=O)N(C5CCC(=O)NC5=O)C6=O)CC4)cc3F)ncc21 (centres unmarked) [Compound 27, 4-((9-cyclopentyl-7,7-difluoro-5-methyl-6-oxo-6,7,8,9-tetrahydro-5H-pyrimido[4,5-b][1,4]diazepin-2-yl)amino)-N-(1-(4-((2-(2,6-dioxopiperidin-3-yl)-1,3-dioxoisoindolin-4-yl)amino)butanoyl)piperidin-4-yl)-3-fluorobenzamide] | ++ (++<0.6)
COc1cc(C(=O)NC2CCN(C(=O)CCC#Cc3cccc4c3C(=O)N(C3CCC(=O)NC3=O)C4=O)CC2)ccc1Nc1ncc2c(n1)N(C1CCCC1)CC(F)(F)C(=O)N2C (centres unmarked) [Compound 179, 4-((9-cyclopentyl-7,7-difluoro-5-methyl-6-oxo-6,7,8,9-tetrahydro-5H-pyrimido[4,5-b][1,4]diazepin-2-yl)amino)-N-(1-(5-(2-(2,6-dioxopiperidin-3-yl)-1,3-dioxoisoindolin-4-yl)pent-4-ynoyl)piperidin-4-yl)-3-methoxybenzamide] | ++ (++<0.6)
COc1cc(C(=O)N[C@H]2CC[C@H](OC3CCN(c4ccc5c(c4)C(=O)N(C4CCC(=O)NC4=O)C5=O)CC3)CC2)c(F)cc1Nc1ncc2c(n1)N(C1CCCC1)CC(F)(F)C(=O)N2C (some centres unmarked) [Compound 116, 4-((9-cyclopentyl-7,7-difluoro-5-methyl-6-oxo-6,7,8,9-tetrahydro-5H-pyrimido[4,5-b][1,4]diazepin-2-yl)amino)-N-((1r,4r)-4-((1-(2-(2,6-dioxopiperidin-3-yl)-1,3-dioxoisoindolin-5-yl)piperidin-4-yl)oxy)cyclohexyl)-2-fluoro-5-methoxybenzamide] | ++ (++<0.6)
COc1cc(C(=O)N[C@H]2CC[C@H](N3CCN(CCOCCOc4cccc5c4CN(C4CCC(=O)NC4=O)C5=O)CC3)CC2)ccc1Nc1ncc2c(n1)N(C1CCCC1)CC(F)(F)C(=O)N2C (some centres unmarked) [Compound 198, 4-((9-cyclopentyl-7,7-difluoro-5-methyl-6-oxo-6,7,8,9-tetrahydro-5H-pyrimido[4,5-b][1,4]diazepin-2-yl)amino)-N-((1r,4r)-4-(4-(2-(2-((2-(2,6-dioxopiperidin-3-yl)-1-oxoisoindolin-4-yl)oxy)ethoxy)ethyl)piperazin-1-yl)cyclohexyl)-3-methoxybenzamide] | ++ (++<0.6)
COc1cc(C(=O)NC2CCN(CCOCCOCCOCCOCCOCCOCCNc3cccc4c3C(=O)N(C3CCC(=O)NC3=O)C4=O)CC2)c(F)cc1Nc1ncc2c(n1)N(C1CCCC1)CC(F)(F)C(=O)N2C (centres unmarked) [Compound 17, 4-((9-cyclopentyl-7,7-difluoro-5-methyl-6-oxo-6,7,8,9-tetrahydro-5H-pyrimido[4,5-b][1,4]diazepin-2-yl)amino)-N-(1-(20-((2-(2,6-dioxopiperidin-3-yl)-1,3-dioxoisoindolin-4-yl)amino)-3,6,9,12,15,18-hexaoxaicosyl)piperidin-4-yl)-2-fluoro-5-methoxybenzamide] | ++ (++<0.6)
COc1cc(C(=O)NC2CCN(C(=O)CCCNc3ccc4c(c3)C(=O)N(C3CCC(=O)NC3=O)C4=O)CC2)c(F)cc1Nc1ncc2c(n1)N(C1CCCC1)CC(F)(F)C(=O)N2C (centres unmarked) [Compound 35, 4-((9-cyclopentyl-7,7-difluoro-5-methyl-6-oxo-6,7,8,9-tetrahydro-5H-pyrimido[4,5-b][1,4]diazepin-2-yl)amino)-N-(1-(4-((2-(2,6-dioxopiperidin-3-yl)-1,3-dioxoisoindolin-5-yl)amino)butanoyl)piperidin-4-yl)-2-fluoro-5-methoxybenzamide] | + (+<0.7)
COc1cc(C(=O)N2CCC(CN3CCN(c4cccc5c4C(=O)N(C4CCC(=O)NC4=O)C5=O)CC3)CC2)ccc1Nc1ncc2c(n1)N(C1CCCC1)CC(F)(F)C(=O)N2C (centres unmarked) [Compound 93, 4-(4-((1-(4-((9-cyclopentyl-7,7-difluoro-5-methyl-6-oxo-6,7,8,9-tetrahydro-5H-pyrimido[4,5-b][1,4]diazepin-2-yl)amino)-3-methoxybenzoyl)piperidin-4-yl)methyl)piperazin-1-yl)-2-(2,6-dioxopiperidin-3-yl)isoindoline-1,3-dione] | ++ (++<0.6)

Results, then the molecule that gave them:

Activity: ratio of the luminescense value of each Exemplary Compound treatment group to DMSO treatment group | SMILES
+ (+<0.7) | C=C[C@]1(F)CN(C2CCCC2)c2nc(Nc3ccc(C(=O)NC4CCN(C(=O)CCN5CCN(c6cccc7c6C(=O)N(C6CCC(=O)NC6=O)C7=O)CC5)CC4)cc3OC)ncc2N(C)C1=O (single isomer, unassigned) [Compound 109]
+ (+<0.7) | COc1cc(C(=O)N[C@H]2CC[C@@H](N(C)CCCNc3cccc4c3C(=O)N(C3CCC(=O)NC3=O)C4=O)CC2)ccc1Nc1ncc2c(n1)N(C1CCCC1)CC(F)(F)C(=O)N2C (some centres unmarked) [Compound 16, 4-((9-cyclopentyl-7,7-difluoro-5-methyl-6-oxo-6,7,8,9-tetrahydro-5H-pyrimido[4,5-b][1,4]diazepin-2-yl)amino)-N-((1s,4s)-4-((3-((2-(2,6-dioxopiperidin-3-yl)-1,3-dioxoisoindolin-4-yl)amino)propyl)(methyl)amino)cyclohexyl)-3-methoxybenzamide]
+ (+<0.7) | COc1cc(C(=O)NC2CCN(C(=O)CCNc3cccc4c3C(=O)N(C3CCC(=O)NC3=O)C4=O)CC2)c(F)cc1Nc1ncc2c(n1)N(C1CCCC1)CC(F)(F)C(=O)N2C (centres unmarked) [Compound 24, 4-((9-cyclopentyl-7,7-difluoro-5-methyl-6-oxo-6,7,8,9-tetrahydro-5H-pyrimido[4,5-b][1,4]diazepin-2-yl)amino)-N-(1-(3-((2-(2,6-dioxopiperidin-3-yl)-1,3-dioxoisoindolin-4-yl)amino)propanoyl)piperidin-4-yl)-2-fluoro-5-methoxybenzamide]
+ (+<0.7) | COc1cc(C(=O)NC2CCN(C(=O)CC[C@@H]3CN(Cc4cccc5c4C(=O)N(C4CCC(=O)NC4=O)C5=O)CCO3)CC2)ccc1Nc1ncc2c(n1)N(C1CCCC1)CC(F)(F)C(=O)N2C (stereo partly drawn) [Compound 173, 4-((9-cyclopentyl-7,7-difluoro-5-methyl-6-oxo-6,7,8,9-tetrahydro-5H-pyrimido[4,5-b][1,4]diazepin-2-yl)amino)-N-(1-(3-((2R)-4-((2-(2,6-dioxopiperidin-3-yl)-1,3-dioxoisoindolin-4-yl)methyl)morpholin-2-yl)propanoyl)piperidin-4-yl)-3-methoxybenzamide]
++ (++<0.6) | COc1cc(C(=O)N2CCC(CCCCN3CCN(c4ccc5c(c4)C(=O)N(C4CCC(=O)NC4=O)C5=O)CC3)CC2)ccc1Nc1ncc2c(n1)N(C1CCCC1)CC(F)(F)C(=O)N2C (centres unmarked) [Compound 100, 5-(4-(4-(1-(4-((9-cyclopentyl-7,7-difluoro-5-methyl-6-oxo-6,7,8,9-tetrahydro-5H-pyrimido[4,5-b][1,4]diazepin-2-yl)amino)-3-methoxybenzoyl)piperidin-4-yl)butyl)piperazin-1-yl)-2-(2,6-dioxopiperidin-3-yl)isoindoline-1,3-dione]
++ (++<0.6) | CN1C(=O)C(F)(F)CN(C2CCCC2)c2nc(Nc3ccc(C(=O)NC4CCN(C(=O)CCN5CCN(c6cccc7c6C(=O)N(C6CCC(=O)NC6=O)C7=O)CC5)CC4)cc3OCCO)ncc21 (centres unmarked) [Compound 73, 4-((9-cyclopentyl-7,7-difluoro-5-methyl-6-oxo-6,7,8,9-tetrahydro-5H-pyrimido[4,5-b][1,4]diazepin-2-yl)amino)-N-(1-(3-(4-(2-(2,6-dioxopiperidin-3-yl)-1,3-dioxoisoindolin-4-yl)piperazin-1-yl)propanoyl)piperidin-4-yl)-3-(2-hydroxyethoxy)benzamide]
